Reference: the NIST ThermoML archive (doi:10.1021/je300873x)
Numbers after ± are expanded uncertainties.

Assay: mn = molality of the nth substance listed, in mol/kg
Settings: for surface tension liquid-gas: Pendant drop shape; for electrical conductivity: Liquid, Digital conductivity meter

Work on `CCCCCCCCCCCCCC[N+](C)(CCO)CCO.[Br-]` [N,N-bis(2-hydroxyethyl)-N-methyltetradecanaminium bromide] + O yielded a surface tension liquid-gas (298.15 K, m1 = 0.0003) of 64.43 ± 0.58 mN/m, a surface tension liquid-gas (298.15 K, m1 = 0.00061) of 59.09 ± 0.54 mN/m and a surface tension liquid-gas (298.15 K, m1 = 0.00081) of 56.14 ± 0.51 mN/m. The surface tension liquid-gas (298.15 K, m1 = 0.00102) was 54.31 ± 0.5 mN/m, the surface tension liquid-gas (298.15 K, m1 = 0.00152) was 48.51 ± 0.45 mN/m and the surface tension liquid-gas (298.15 K, m1 = 0.00203) was 44.69 ± 0.42 mN/m. It also gave a surface tension liquid-gas (298.15 K, m1 = 0.00254) of 40.4 ± 0.39 mN/m, a surface tension liquid-gas (298.15 K, m1 = 0.00305) of 38.3 ± 0.37 mN/m and a surface tension liquid-gas (298.15 K, m1 = 0.00467) of 38.31 ± 0.37 mN/m. The surface tension liquid-gas (298.15 K, m1 = 0.00508) was 38.46 ± 0.38 mN/m, the surface tension liquid-gas (298.15 K, m1 = 0.00609) was 38.23 ± 0.37 mN/m and the surface tension liquid-gas (298.15 K, m1 = 0.00812) was 38.23 ± 0.37 mN/m. For the same compound, the electrical conductivity (298.15 K, m1 = 0.0026) was 0.021 ± 0.0001 S/m, the electrical conductivity (298.15 K, m1 = 0.0027) was 0.0218 ± 0.0001 S/m and the electrical conductivity (298.15 K, m1 = 0.0028) was 0.0226 ± 0.0001 S/m. For the same compound, the electrical conductivity (298.15 K, m1 = 0.00292) was 0.0235 ± 0.0001 S/m, the electrical conductivity (298.15 K, m1 = 0.00305) was 0.0242 ± 0.0001 S/m and the electrical conductivity (298.15 K, m1 = 0.00319) was 0.025 ± 0.0001 S/m. For the same compound, the electrical conductivity (298.15 K, m1 = 0.00334) was 0.0255 ± 0.0001 S/m, the electrical conductivity (298.15 K, m1 = 0.00351) was 0.0259 ± 0.0001 S/m and the electrical conductivity (298.15 K, m1 = 0.00369) was 0.0262 ± 0.0001 S/m. For the same compound, the electrical conductivity (298.15 K, m1 = 0.0039) was 0.0267 ± 0.0001 S/m, the electrical conductivity (298.15 K, m1 = 0.00412) was 0.0272 ± 0.0001 S/m and the electrical conductivity (298.15 K, m1 = 0.00438) was 0.0277 ± 0.0001 S/m. The electrical conductivity (298.15 K, m1 = 0.00467) was 0.0283 ± 0.0001 S/m, the electrical conductivity (298.15 K, m1 = 0.00501) was 0.0289 ± 0.0001 S/m and the electrical conductivity (298.15 K, m1 = 0.00539) was 0.0298 ± 0.0001 S/m. It also gave an electrical conductivity (298.15 K, m1 = 0.00584) of 0.0306 ± 0.0001 S/m, an electrical conductivity (298.15 K, m1 = 0.00637) of 0.0317 ± 0.0001 S/m and an electrical conductivity (303.15 K, m1 = 0.00259) of 0.0232 ± 0.0001 S/m. For the same compound, the electrical conductivity (303.15 K, m1 = 0.00269) was 0.024 ± 0.0001 S/m, the electrical conductivity (303.15 K, m1 = 0.0028) was 0.025 ± 0.0001 S/m and the electrical conductivity (303.15 K, m1 = 0.00292) was 0.0257 ± 0.0001 S/m. It also gave an electrical conductivity (303.15 K, m1 = 0.00304) of 0.0268 ± 0.0001 S/m, an electrical conductivity (303.15 K, m1 = 0.00318) of 0.0278 ± 0.0001 S/m and an electrical conductivity (303.15 K, m1 = 0.00333) of 0.0282 ± 0.0001 S/m. The electrical conductivity (303.15 K, m1 = 0.0035) was 0.029 ± 0.0001 S/m, the electrical conductivity (303.15 K, m1 = 0.00369) was 0.0295 ± 0.0001 S/m and the electrical conductivity (303.15 K, m1 = 0.00389) was 0.03 ± 0.0001 S/m. It also gave an electrical conductivity (303.15 K, m1 = 0.00412) of 0.0305 ± 0.0001 S/m, an electrical conductivity (303.15 K, m1 = 0.00438) of 0.0311 ± 0.0001 S/m and an electrical conductivity (303.15 K, m1 = 0.00467) of 0.0318 ± 0.0001 S/m. It also gave an electrical conductivity (303.15 K, m1 = 0.005) of 0.0325 ± 0.0001 S/m, an electrical conductivity (303.15 K, m1 = 0.00539) of 0.0334 ± 0.0001 S/m and an electrical conductivity (303.15 K, m1 = 0.00584) of 0.0343 ± 0.0001 S/m. It also gave an electrical conductivity (303.15 K, m1 = 0.00637) of 0.0356 ± 0.0001 S/m, an electrical conductivity (308.15 K, m1 = 0.00259) of 0.0256 ± 0.0001 S/m and an electrical conductivity (308.15 K, m1 = 0.00269) of 0.0264 ± 0.0001 S/m. The electrical conductivity (308.15 K, m1 = 0.0028) was 0.0274 ± 0.0001 S/m, the electrical conductivity (308.15 K, m1 = 0.00291) was 0.0285 ± 0.0001 S/m and the electrical conductivity (308.15 K, m1 = 0.00304) was 0.0297 ± 0.0001 S/m. It also gave an electrical conductivity (308.15 K, m1 = 0.00318) of 0.0309 ± 0.0001 S/m, an electrical conductivity (308.15 K, m1 = 0.00333) of 0.0318 ± 0.0001 S/m and an electrical conductivity (308.15 K, m1 = 0.0035) of 0.0325 ± 0.0001 S/m. For the same compound, the electrical conductivity (308.15 K, m1 = 0.00368) was 0.0331 ± 0.0001 S/m, the electrical conductivity (308.15 K, m1 = 0.00388) was 0.0336 ± 0.0001 S/m and the electrical conductivity (308.15 K, m1 = 0.00411) was 0.0342 ± 0.0001 S/m. The electrical conductivity (308.15 K, m1 = 0.00437) was 0.0349 ± 0.0001 S/m, the electrical conductivity (308.15 K, m1 = 0.00466) was 0.0357 ± 0.0001 S/m and the electrical conductivity (308.15 K, m1 = 0.00499) was 0.0367 ± 0.0001 S/m. It also gave an electrical conductivity (308.15 K, m1 = 0.00538) of 0.0376 ± 0.0001 S/m, an electrical conductivity (308.15 K, m1 = 0.00583) of 0.0387 ± 0.0001 S/m and an electrical conductivity (308.15 K, m1 = 0.00636) of 0.0401 ± 0.0001 S/m. For the same compound, the electrical conductivity (313.15 K, m1 = 0.00258) was 0.028 ± 0.0001 S/m, the electrical conductivity (313.15 K, m1 = 0.00268) was 0.0291 ± 0.0001 S/m and the electrical conductivity (313.15 K, m1 = 0.00279) was 0.0303 ± 0.0001 S/m. The electrical conductivity (313.15 K, m1 = 0.00291) was 0.0314 ± 0.0001 S/m, the electrical conductivity (313.15 K, m1 = 0.00303) was 0.0327 ± 0.0001 S/m and the electrical conductivity (313.15 K, m1 = 0.00317) was 0.0341 ± 0.0001 S/m. The electrical conductivity (313.15 K, m1 = 0.00332) was 0.0353 ± 0.0001 S/m, the electrical conductivity (313.15 K, m1 = 0.00349) was 0.0364 ± 0.0001 S/m and the electrical conductivity (313.15 K, m1 = 0.00367) was 0.0373 ± 0.0001 S/m. It also gave an electrical conductivity (313.15 K, m1 = 0.00388) of 0.038 ± 0.0001 S/m, an electrical conductivity (313.15 K, m1 = 0.0041) of 0.0386 ± 0.0001 S/m and an electrical conductivity (313.15 K, m1 = 0.00436) of 0.0396 ± 0.0001 S/m. For the same compound, the electrical conductivity (313.15 K, m1 = 0.00465) was 0.0403 ± 0.0001 S/m, the electrical conductivity (313.15 K, m1 = 0.00498) was 0.0411 ± 0.0001 S/m and the electrical conductivity (313.15 K, m1 = 0.00537) was 0.0424 ± 0.0001 S/m. The electrical conductivity (313.15 K, m1 = 0.00582) was 0.0437 ± 0.0001 S/m, the electrical conductivity (313.15 K, m1 = 0.00634) was 0.0453 ± 0.0001 S/m and the electrical conductivity (318.15 K, m1 = 0.00258) was 0.0307 ± 0.0001 S/m. The electrical conductivity (318.15 K, m1 = 0.00268) was 0.0318 ± 0.0001 S/m, the electrical conductivity (318.15 K, m1 = 0.00279) was 0.033 ± 0.0001 S/m and the electrical conductivity (318.15 K, m1 = 0.0029) was 0.0344 ± 0.0001 S/m. For the same compound, the electrical conductivity (318.15 K, m1 = 0.00303) was 0.0355 ± 0.0001 S/m, the electrical conductivity (318.15 K, m1 = 0.00317) was 0.0372 ± 0.0001 S/m and the electrical conductivity (318.15 K, m1 = 0.00332) was 0.0389 ± 0.0001 S/m. The electrical conductivity (318.15 K, m1 = 0.00348) was 0.0407 ± 0.0001 S/m, the electrical conductivity (318.15 K, m1 = 0.00367) was 0.0413 ± 0.0001 S/m and the electrical conductivity (318.15 K, m1 = 0.00387) was 0.0425 ± 0.0001 S/m. It also gave an electrical conductivity (318.15 K, m1 = 0.0041) of 0.0436 ± 0.0001 S/m, an electrical conductivity (318.15 K, m1 = 0.00435) of 0.0446 ± 0.0001 S/m and an electrical conductivity (318.15 K, m1 = 0.00464) of 0.0455 ± 0.0001 S/m. For the same compound, the electrical conductivity (318.15 K, m1 = 0.00497) was 0.0467 ± 0.0001 S/m, the electrical conductivity (318.15 K, m1 = 0.00536) was 0.0478 ± 0.0001 S/m and the electrical conductivity (318.15 K, m1 = 0.0058) was 0.0494 ± 0.0001 S/m. For the same compound, the electrical conductivity (318.15 K, m1 = 0.00633) was 0.0511 ± 0.0001 S/m, the electrical conductivity (323.15 K, m1 = 0.00257) was 0.0334 ± 0.0001 S/m and the electrical conductivity (323.15 K, m1 = 0.00267) was 0.0347 ± 0.0001 S/m. The electrical conductivity (323.15 K, m1 = 0.00278) was 0.0359 ± 0.0001 S/m, the electrical conductivity (323.15 K, m1 = 0.0029) was 0.0374 ± 0.0001 S/m and the electrical conductivity (323.15 K, m1 = 0.00302) was 0.0388 ± 0.0001 S/m. The electrical conductivity (323.15 K, m1 = 0.00316) was 0.0406 ± 0.0001 S/m, the electrical conductivity (323.15 K, m1 = 0.00331) was 0.0424 ± 0.0001 S/m and the electrical conductivity (323.15 K, m1 = 0.00347) was 0.0444 ± 0.0001 S/m. The electrical conductivity (323.15 K, m1 = 0.00366) was 0.0464 ± 0.0001 S/m, the electrical conductivity (323.15 K, m1 = 0.00386) was 0.0477 ± 0.0001 S/m and the electrical conductivity (323.15 K, m1 = 0.00409) was 0.049 ± 0.0001 S/m. It also gave an electrical conductivity (323.15 K, m1 = 0.00434) of 0.0502 ± 0.0001 S/m, an electrical conductivity (323.15 K, m1 = 0.00463) of 0.0514 ± 0.0001 S/m and an electrical conductivity (323.15 K, m1 = 0.00496) of 0.0526 ± 0.0001 S/m. It also gave an electrical conductivity (323.15 K, m1 = 0.00535) of 0.054 ± 0.0001 S/m, an electrical conductivity (323.15 K, m1 = 0.00579) of 0.0559 ± 0.0001 S/m and an electrical conductivity (323.15 K, m1 = 0.00632) of 0.0577 ± 0.0001 S/m.
With `O` [water] + CCCCCCCCCCCCCC[N+](C)(CCO)CCO.[Br-] the surface tension liquid-gas (298.15 K, m2 = 0) was 72.17 ± 0.64 mN/m.
For `O` [water] + CCCCCCCCCCCC[N+](C)(C)CCO.[Br-], the surface tension liquid-gas (298.15 K, m2 = 0) was 72.17 ± 0.64 mN/m.
For `O` [water] + CCCCCCCCCCCC[N+](C)(CCO)CCO.[Br-], the surface tension liquid-gas (298.15 K, m2 = 0) was 72.17 ± 0.01 mN/m.
